One series concerns cells. In words: Cell toxicity of sugar analogs at the levels used for metabolic incorporation. It counts as cell-based. Particulars: compared with azido Fuc analogs of previous approaches; 200 μM fucose precursors, 25 μM sialic acid precursors. Here is the method: In an exemplary implementation of the MOE method disclosed herein, an appropriate cell growth medium is supplemented with a peracetylated version of the CuAAC competent sugars, 25 μM for sialic acid precursors and 200 μM for fucose precursors (although peracetylation increases cellular uptake of sugars, the acetate groups are cleaved by esterases before it is converted to the nucleotide-sugar donor and incorporated into emerging glycans via glycosyltransferases). As shown by the biosynthetic pathways in FIG. 1, the ManNAc derivatives feed directly into de novo synthesis of NeuAc-CMP, whereas, fucose derivatives are incorporated through a salvage pathway for the synthesis of Fuc-GDP. For labeling, the alkyne-tagged cellular glycans, cells and/or cell lysates are treated with an appropriate CuAAC probe (depicted as 6-8 in FIG. 2). Overall, CuAAC is well-suited for functionalizing cellular glycans since it may be performed in aqueous environments, with high chemoselectively, to form stable 1,2,3-triazoles in nearly quantitative yield, starting from inconspicuous and inert azide or alkyne reaction partners. In conjunction the triazole ligand, CuAAc reactions can be executed under very mild and biocompatible conditions, requiring ambient temperature and low reactant concentrations. […] CuAAC is well-suited for end-point analysis, such as flow cytometry and glycoproteomic purposes. […]

Another series deals with Jurkat cells. In words: Flow cytometry of cell-surface CuAAC labeling of alkynyl-tagged glycans. It counts as cell-based. The conditions noted are these: for cell-surface fluorescent labeling: CuAAC with 3-azido-7-hydroxycoumarin probe. Here is the method: Cell culture: Breast cancer MCF-7 and Jurkat cells were cultivated (2×10^6/10 ml) in RPMI 1640 medium (Invitrogen) supplemented with 10% FCS. Peracetylated alkynyl sugars Fucyne (200 uM) and ManNAcyne (25 uM) or native control sugars ManNAc for 1 to 3 days at 37° C.
Flow cytometry analysis: Cells were harvested, washed with 0.1% FCS/PBS, and resuspended (10^6 cells for Jurkat cells; 3×10^5 cells for other cells) in 100 microliters of click reaction solution (0.1 mM biotin probe, 0.1 mM Tris-triazoleamine catalyst, 0.1 mM CuSO4/0.5 mM sodium ascorbate, in PBS). The reaction was incubated at room temperature for 30 min, and then the cells were washed twice with 0.1% FCS/PBS. Cells treated with biotin probe were subsequently stained with fluorescein-conjugated streptavidin (0.5 microgram per sample in 50 microliters of 1% FCS/PBS) for 30 min at 4° C., and washed three times with 1% FCS/PBS. Data were acquired by BD LSR II with FACSDiva software, and were analyzed by CellQuestPro software (BD Biosciences).
Background: A flow cytometer gives signals particle by particle.

Series [1] concerns cell extracts (soluble lysate fractions). Description: SDS/PAGE, Western blot and fluorescence detection of labeled glycoproteins in cell extracts. It counts as cell-based. The conditions noted are these: for biotin-labeling signal of proteins by Western blot: lysate clicked with biotin probe, mouse anti-biotin MAb, 200 micromolar Fucyne, 25 micromolar ManNAcyne, 3 days; for signal by Western blot or fluorescence: control sugars processed under the same click condition. On the procedure: Immunoblotting (IB) and immunoprecipitation (IP): Cells were seeded at 3×10^6/8 ml per 10-cm dish and treated with control and test sugars (200 micromolar Fuc vs. Fucyne or 25 micromolar ManNAc vs. ManNAcyne) in growth medium at 37° C. After 3 days, cell extracts were prepared by resuspending the cells in 1 ml of lysis buffer (1% Nonidet P-40/150 mM NaCl/protease inhibitor/100 mM sodium phosphate, pH 7.5). Protein extract (1 mg/ml) was labeled for 1 h at room temperature (0.1 mM biotin probe, or fluorogenic coumarin probe, 0.1 mM tris-triazoleamine catalyst, 1 mM CuSO4, and 2 mM sodium ascorbate, in PBS; the azido rhodamine probe was a gift from Benjamin F. Cravatt, The Scripps Research Institute). Labeled protein lysate was resolved by SDS/PAGE. For immunoblotting of biotin-labeled glycoproteins, electrophoresed proteins were transferred onto PVDF membranes, blocked for 20 min with SuperBlock® Blocking Buffer. Blots were either probed for 1 h with anti-biotin MAb (1 microgram/ml), and incubated with peroxidase-conjugated goat anti-mouse IgG (1:7,500 dilution) for 30 min; or probed for 1 h with peroxidase-conjugated anti-biotin Ab (Calbiochem)(1:5000 in SuperBlock). Each step was followed by a wash with 0.02% Tween 20/PBS (PBST). Signal was developed with SuperSignal Chemiluminescent Substrate and detected by exposure to x-ray film. For detecting the coumarin-labeled glycoproteins, gels were examined under 365 nm UV light with a 535+/−50 nm filter. Images were taken by using a BioDoc-It imaging system (UVP). Rhodamine gels were analyzed as described (Speers A E, Cravatt B F (2004) Chem Biol 11:535-546).
(In general: A western blot detects proteins with antibodies after separation by electrophoresis.)

Series [2] has as its system MCF7 (breast adenocarcinoma) cells. In words: Confocal microscopy of intracellular labeling of alkynyl-tagged glycans. It counts as cell-based, Human. The conditions noted are these: 3-day incubation, biotin probe and fluorescein-conjugated streptavidin, overlaps with WGA (Golgi) signal. On the procedure: (§1) To visualize the localization of alkyne-tagged glycans, adherent cells were grown on slides in the presence or absence of alkynyl sugar analogs or precursors. After a 3-day-incubation, cells attached to the slides are fixed, permeabilized, and labeled with either a biotin probe or fluorogenic coumarin probe for fluorescent signal analysis with confocal microscopy, as shown in FIG. 3C. For comparison, samples are also stained with wheat germ agglutinin (WGA, a Golgi marker).
(§2) Fluorescent Labeling in Cells: Human hepatocellular carcinoma cells (Hep3B) or breast adenocarcinoma cells (MCF7) were seeded onto six-well plates (3×10^5/2 ml per well) containing glass coverslips, and were cultivated in 10% FCS/DMEM or 10% FCS/RPMI medium 1640. Growth medium was supplemented with a control sugar (200 micromolar Fuc or 25 micromolar ManNAc) and an alkynyl-modified sugar (Fucyne or ManNAcyne at the same concentration as control sugars). After growing for 3 days, cells on coverslips were fixed and permeabilized with acetone for 10 min, then subjected to the probe labeling reaction: 0.1 mM biotin probe or fluorogenic coumarin probe, 0.1 mM Tris-triazoleamine catalyst, 1 mM CuSO4, 2 mM sodium ascorbate, in PBS, at room temperature for 30 min. Subsequently, the fixed and labeled cells were rinsed with PBS and stained with Alexa Fluor 594-conjugated WGA lectin (2 micrograms/ml in 5% BSA/PBS) and/or fluorescein-conjugated streptavidin (2 micrograms/ml in 5% BSA/PBS) at room temperature for 30 min. Hoechst 33342 (10 microgram/ml in PBS) was used to stain nuclei. Fluorescent images were captured by Bio-Rad (Carl Zeiss) Radiance 2100 Rainbow laser scanning confocal microscopy system.

The test system of series [3] is plexin B2 in A549 mock, FucT4 and FucT6 cells. Description: Incorporation of alkynyl fucose into plexin B2 glycans (IP, on-membrane click reaction, streptavidin blot). Particulars: alkynyl fucose-treated mock, stronger in FucT4/6-overexpressing cells, no signal without treatment. It counts as cell-based. Here is the method: Total proteins were extracted from untreated or alkynyl fucose-treated mock control, FucT4 and FucT6 stable cell lines. Proteins ([…]) were dissolved in 500 ml IP buffer (1% NP-40, 150 mM NaCl, 10% glycerol, 50 mM HEPES, pH 7.5 and 1×EDTA-free protease inhibitor cocktail) and precleared with 25 ml protein G beads (GE Healthcare) at 4° C. for 1 h. Precleared proteins extracts were then incubated with 3 mg anti-plexin B2 antibody/25 ml protein G beads at 4° C. for 1 h for overnight. Immunoprecipitates were subjected to SDS-PAGE and the proteins were transferred to PVDF membrane. After blocking with 5% BSA/PBST (0.1% Tween 20/PBS) for 1 h and wash with PBST and PBS sequentially, the protein-side of PVDF membrane was faced down to immerse in click reaction mixture (0.1 mM azido biotin, 0.1 mM Tris-triazoleamine catalyst, 1 mM CuSO4, 2 mM sodium ascorbate; 1 ml for a blot from a mini-gel) and incubated at room temperature for 1 h. After wash with PBST twice, the membrane was probed with peroxidase-conjugated streptavidin for biotin tags on blots.
Comparative profiling of fucosylated N-linked glycoproteins using the GIDmap method disclosed herein was conducted in lung cancer cell line A549 over-expressing either fucosyltransferases (FucT) 4 or 6. […] The biotin signals were then detected by immunoblotting with peroxidase-conjugated streptavidin. […]

Series [4] deals with Hep3B hepatocellular carcinoma cells. Description: Confocal microscopy of intracellular labeling of alkynyl-tagged glycans. It counts as cell-based, Human. Particulars: 3-day incubation; biotin probe and fluorogenic coumarin probe; compared with the Fucyne result. On the procedure: as §1, §2

With “1,2,3,4-tetraacetyl alkynyl fucose [Fucyne]”, the toxicity to cells result in the series on cells is “greatly reduced toxicity”. Also, the cell-surface fluorescent labeling result in the series with Jurkat cells was “significant fluorescent labeling”. Also, the “biotin-labeling signal of proteins by Western blot” value in series [1] is listed as “specific biotin-labeling signals were detected”. Moreover, in series [2], the “intracellular labeling signal (confocal microscopy)” value (“intracellular labeling signal” for short) is recorded as “strong punctuate-labeling signal”. The “biotin signal of immunoprecipitated plexin B2 after on-membrane CuAAC” value in series [3] is “positive signals”.

Consider `C[C@H](O)[C@@H](O)[C@@H](O)[C@H](O)C=O` [Fuc, Fucose, reference compound], for which the cell-surface fluorescent labeling result in the series on Jurkat cells is listed as “very low background signals”. For the same compound, the “signal by Western blot or fluorescence” value in series [1] is recorded as “little to no signal”. The “intracellular labeling signal” value in series [2] is “very low background”.

`CC(=O)N[C@@H]1C(O)O[C@H](CO)[C@@H](O)[C@@H]1O` (stereo partly shown) [ManNAc, N-acetylmannosamine, reference compound]: the “signal by Western blot or fluorescence” value in series [1] is listed as “little to no signal”. Besides, the “intracellular labeling signal” value in series [4] is recorded as “very low background”.

Turning to `C#CCCC(=O)N[C@@H]1C(OC(C)=O)O[C@H](COC(C)=O)[C@@H](OC(C)=O)[C@@H]1OC(C)=O` (stereo partly shown) [ManNAcyne, 1,3,4,6-tetra-O-acetyl-N-4-pentynoylmannosamine], the toxicity to cells entry in the series with cells was “greatly reduced toxicity”. For the same compound, the cell-surface labeling signal result in the series on Jurkat cells (CuAAC-labeled with biotin, detected by fluorescein-conjugated streptavidin, vs control ManNAc) is listed as “specific signal on the cell surface”. Further, in series [1], the “biotin-labeling signal of proteins by Western blot” value was “specific biotin-labeling signals were detected”.

These data come from patent publication US7943330B2, “Tailored glycoproteomic methods for the sequencing, mapping and identification of cellular glycoproteins” (Academia Sinica, priority 2007, dated 2011).
